The test system of assay [1] is E. coli sensitive strain JM109. Briefly: Drug susceptibility measurement with dissolved oxygen electrode, sensitive strain. The assay is classed as cell-based. From the text: (§1) In step SP1, measurement of currents (output signals) is started by applying predetermined voltages to electrodes for measuring dissolved oxygen concentration. The electrodes are provided within a first compartment or well, second compartment or well, and third compartment or well, respectively. The first compartment or well is a compartment or well containing only physiological salt solution. The second compartment or well is a compartment or well containing physiological salt solution and drug solution of a first predetermined concentration. The third compartment or well is a compartment or well containing physiological salt solution and drug solution of a second predetermined concentration. […] In step SP4, current from each electrode for measuring dissolved oxygen concentration is measured at a second time interval for a third time period (for example, at every 1 second for 60 seconds). In step SP5, each time is obtained based upon each of the measured currents at which the maximum current is obtained. […] In step SP7, drug susceptibility is detected based upon the variation condition of each current value during the fourth time period. […]
(§2) Next, the electrode for measuring the dissolved oxygen concentration is mounted to each compartment or well. […] After the measurement time of 360 seconds has passed, the measured currents are stored and the measured currents are analyzed. […]

The subject of assay [2] is E. coli resistant strain 5W (ABPC plasmid introduction). Nature of the assay: Drug susceptibility measurement with dissolved oxygen electrode, resistant strain. In kind it is cell-based.
Text: as §1, §2

Each structure is given as a SMILES string.

With `CC1(C)S[C@@H]2[C@H](NC(=O)[C@H](N)c3ccccc3)C(=O)N2[C@H]1C(=O)O` [ABPC, Ampicillin], the “variation characteristic of measured current (dissolved oxygen) following passage in time, curve versus control” value in assay [1] (JM109+ABPC, control JM109 as reference, FIGS. 2 and 3) is “more gentle than curves each corresponding to the control and the resistant strain”; in assay [2] (5W+ABPC, control JM109 as reference, FIGS. 2 and 3), “equal to or more steep than the curve corresponding to the control”. Further, the “inclination of measured current for 10 seconds from the peak timing, supposing the inclination corresponding to the control to be 100%” value in assay [1] (sensitive strain JM109 + ABPC solution 5.3 μg/ml, entire amount 0.25 ml and 0.5 ml, control JM109 without drug = 100%) was 79.0–85.4%; in assay [2] (resistant strain 5W + ABPC solution 5.3 μg/ml, entire amount 0.25 ml and 0.5 ml, control JM109 without drug = 100%) it was 96.1–122.9%.

These data come from US7198906B2, “Drug sensitivity measuring method” (priority 2000, dated 2007).
